What was measured:
[1] = molecular target: T1, BRD4 bromo domain 1 [BRD4(1)] (Homo sapiens, UniProt O60885); assay: BRD4(1)/acetylated peptide H4 binding assay (TR-FRET); settings: inhibition of interaction between His6-tagged BRD4(1) (amino acids 67-152) and acetylated histone H4 peptide
T1 construct: N-terminally His6-tagged BRD4(1) (amino acids 67-152); made in house; host or cells: E. coli
Summary of the method: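 TR-FRET measured displacement of a biotinylated tetra-acetylated H4 peptide from His6-BRD4(1) (aa 67-152, E. coli-expressed, typically 10 nM) in HEPES pH 7.5 buffer. Compounds were tested at 11 concentrations (0.1 nM–20 μM), with 10 min preincubation, then 1 h at 22 °C and ≥3 h at 4 °C. The 665/620 nm ratio gave IC50 by 4-parameter fit.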

[2] = molecular target: T2, BRD4 bromo domain 2 [BRD4(2)] (Homo sapiens, UniProt O60885); assay: BRD4(2)/acetylated peptide H4 binding assay (TR-FRET); settings: inhibition of interaction between His6-tagged BRD4(2) (amino acids 357-445) and acetylated histone H4 peptide
T2 construct: N-terminally His6-tagged BRD4(2) (amino acids 357-445); made in house; host or cells: E. coli
Summary of the method: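 TR-FRET displacement of biotinylated tetra-acetylated H4 peptide from His6-BRD4(2) (aa 357-445, E. coli-expressed), 100 nM final, in HEPES pH 7.5 buffer; 11 compound concentrations 0.1 nM-20 μM, 10 min preincubation, then 1 h 22 °C plus ≥3 h 4 °C. 665/620 ratio read; IC50 by 4-parameter fit.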

MOLM-13 cell line = assay: MOLM-13 cell proliferation assay (alamarBlue); type: cell-based; settings: Homo sapiens, inhibition of proliferation of MOLM-13 cells (acute myeloid leukaemia), 96 hours incubation
Protocol: In accordance with the invention, the substances were tested for their ability to inhibit the proliferation of the MOLM-13 cell linie (Deutsche Sammlung für Mikroorganismen und Zellkulturen [German Collection of Microorganisms and Cell Cultures], ACC 554; acute myeloid leukaemia). Cell viability was determined by means of the alamarBlue® reagent (Invitrogen) in a Victor X3 Multilabel Reader (Perkin Elmer). The excitation wavelength was 530 nm and the emission wavelength […].
The MOLM-13 cells were sown at a density of 4000 cells/well in 100 μl of growth medium on 96-well microtitre plates. After overnight incubation at 37° C., the fluorescence values were determined (CI values). The plates were then treated with various substance dilutions and incubated at 37° C. for 96 hours. Subsequently, the fluorescence values were determined (CO values). For the data analysis, the CI values were subtracted from the CO values and the results were compared between cells which had been treated with various dilutions of the substance or only with buffer solution. The IC50 values (substance concentration needed for 50% inhibition of cell proliferation) were calculated therefrom.

Row | Compound | IC50 [1] [nM] | IC50 [2] [nM] | IC50 (MOLM-13 cell line) [nM]
1 | C[C@@H]1C(=O)N(C)c2ccc(Nc3ccc(C(=O)N4CC5(COC5)C4)cc3)nc2N1Cc1ccccc1 [Example 41, (3R)-4-Benzyl-1,3-dimethyl-6-{[4-(2-oxa-6-azaspiro[3.3]hept-6-ylcarbonyl)phenyl]amino}-3,4-dihydropyrido[2,3-b]pyrazin-2(1H)-one] | 122 | 109 | 191
2 | C[C@@H]1C(=O)N(C)c2ccc(Nc3ccc(C(=O)NC4CCC(O)CC4)cc3)nc2N1Cc1ccccc1 (stereo partly drawn) [Example 42, 4-{[(3R)-4-Benzyl-1,3-dimethyl-2-oxo-1,2,3,4-tetrahydropyrido[2,3-b]pyrazin-6-yl]amino}-N-(4-hydroxycyclohexyl)benzamide] | 156 | 99 | 326
3 | COc1cc(C(=O)N2CCN(C)CC2)ccc1Nc1ccc2c(n1)N(C1CCOCC1)[C@H](C)C(=O)N2C [Example 45, (3R)-6-({2-Methoxy-4-[(4-methylpiperazin-1-yl)carbonyl]phenyl}amino)-1,3-dimethyl-4-(tetrahydro-2H-pyran-4-yl)-3,4-dihydropyrido[2,3-b]pyrazin-2(1H)-one] | 77 | 86 | 539
4 | C[C@@H]1C(=O)N(C)c2ccc(Nc3ccc(C(=O)NCCN(C)C)cc3)nc2N1C1CCOCC1 [Example 48, N-[2-(Dimethylamino)ethyl]-4-{[(3R)-1,3-dimethyl-2-oxo-4-(tetrahydro-2H-pyran-4-yl)-1,2,3,4-tetrahydropyrido[2,3-b]pyrazin-6-yl]amino}benzamide] | 103 | 167 | 583
5 | C[C@@H]1C(=O)N(C)c2ccc(Nc3ccc(C(=O)NC4CN(C)C4)cc3)nc2N1C1CCOCC1 [Example 50, 4-{[(3R)-1,3-Dimethyl-2-oxo-4-(tetrahydro-2H-pyran-4-yl)-1,2,3,4-tetrahydropyrido[2,3-b]pyrazin-6-yl]amino}-N-(1-methylazetidin-3-yl)benzamide] | 145 | 111 | 576
6 | C[C@@H]1C(=O)N(C)c2ccc(Nc3ccc(C(=O)NCCN4CCN(C)CC4)cc3)nc2N1C1CCOCC1 [Example 51, 4-{[(3R)-1,3-Dimethyl-2-oxo-4-(tetrahydro-2H-pyran-4-yl)-1,2,3,4-tetrahydropyrido[2,3-b]pyrazin-6-yl]amino}-N-[2-(4-methylpiperazin-1-yl)ethyl]benzamide] | 138 | 219 | 507
7 | COc1cc(C(=O)N2CCC(N3CCCCC3)CC2)ccc1Nc1ccc2c(n1)N(C1CCOCC1)[C@H](C)C(=O)N2C [Example 53, (3R)-6-{[4-(1,4′-Bipiperidin-1′-ylcarbonyl)-2-methoxyphenyl]amino}-1,3-dimethyl-4-(tetrahydro-2H-pyran-4-yl)-3,4-dihydropyrido[2,3-b]pyrazin-2(1H)-one] | 90 | 94 | 249
8 | COc1cc(C(=O)NC2CN(C)C2)ccc1Nc1ccc2c(n1)N(C1CCOCC1)[C@H](C)C(=O)N2C [Example 55, 4-{[(3R)-1,3-Dimethyl-2-oxo-4-(tetrahydro-2H-pyran-4-yl)-1,2,3,4-tetrahydropyrido[2,3-b]pyrazin-6-yl]amino}-3-methoxy-N-(1-methylazetidin-3-yl)benzamide] | 215 | 128 | 668
9 | C[C@@H]1C(=O)N(C)c2ccc(Nc3ccc(C(=O)N[C@H]4CC[C@H](N5CCN(CC6CC6)CC5)CC4)cc3)nc2N1C1CCOCC1 [Example 57, N-{trans-4-[4-(Cyclopropylmethyl)piper-azin-1-yl]cyclohexyl}-4-{[(3R)-1,3-dimethyl-2-oxo-4-(tetrahydro-2H-pyran-4-yl)-1,2,3,4-tetrahydropyrido[2,3-b]pyrazin-6-yl]amino}benzamide] | 139 | 156 | 366
10 | C[C@@H]1C(=O)N(C)c2ccc(Nc3ccc(C(=O)NC4CCN(C)CC4)cc3)nc2N1C1CCOCC1 [Example 58, 4-{[(3R)-1,3-Dimethyl-2-oxo-4-(tetrahydro-2H-pyran-4-yl)-1,2,3,4-tetrahydropyrido[2,3-b]pyrazin-6-yl]amino}-N-(1-methylpiperidin-4-yl)benzamide] | 111 | 134 | 339
11 | COc1cc(C(=O)NCCc2cccnc2)ccc1Nc1ccc2c(n1)N(C1CCOCC1)[C@H](C)C(=O)N2C [Example 61, 4-{[(3R)-1,3-Dimethyl-2-oxo-4-(tetrahydro-2H-pyran-4-yl)-1,2,3,4-tetrahydropyrido[2,3-b]pyrazin-6-yl]amino}-3-methoxy-N-[2-(pyridin-3-yl)ethyl]benzamide] | 172 | 110 | 407
12 | COc1cc(C(=O)NC2CCC(N3CCC(F)(F)CC3)CC2)ccc1Nc1ccc2c(n1)N(C1CCOCC1)[C@H](C)C(=O)N2C (stereo partly drawn) [Example 62, N-[4-(4,4-Difluoropiperidin-1-yl)cyclohexyl]-4-{[(3R)-1,3-dimethyl-2-oxo-4-(tetrahydro-2H-pyran-4-yl)-1,2,3,4-tetrahydropyrido[2,3-b]pyrazin-6-yl]amino}-3-methoxybenzamide] | 187 | 146 | 444
13 | COc1cc(C(=O)NCCN2CCN(C)CC2)ccc1Nc1ccc2c(n1)N(C1CCOCC1)[C@H](C)C(=O)N2C [Example 64, 4-{[(3R)-1,3-Dimethyl-2-oxo-4-(tetrahydro-2H-pyran-4-yl)-1,2,3,4-tetrahydropyrido[2,3-b]pyrazin-6-yl]amino}-3-methoxy-N-[2-(4-methylpiperazin-1-yl)ethyl]benzamide] | 179 | 81 | 310
14 | C[C@@H]1C(=O)N(C)c2ccc(Nc3ccc(C(=O)NCCN4CCN(C)CC4)cc3)nc2N1C1CCCCC1 [Example 66, 4-{[(3R)-4-Cyclohexyl-1,3-dimethyl-2-oxo-1,2,3,4-tetrahydropyrido[2,3-b]pyrazin-6-yl]amino}-N-[2-(4-methylpiperazin-1-yl)ethyl]benzamide] | 140 | 154 | 270
15 | COc1cc(C(=O)NCCN2CCN(C)CC2)ccc1Nc1ccc2c(n1)N(C1CCCCC1)[C@H](C)C(=O)N2C [Example 67, 4-{[(3R)-4-Cyclohexyl-1,3-dimethyl-2-oxo-1,2,3,4-tetrahydropyrido[2,3-b]pyrazin-6-yl]amino}-3-methoxy-N-[2-(4-methylpiperazin-1-yl)ethyl]benzamide] | 178 | 110 | 265
16 | C[C@@H]1C(=O)N(C)c2ccc(Nc3ccc(C(=O)N[C@H]4CC[C@H](N5CCN(CC6CC6)CC5)CC4)cc3)nc2N1C1CCCCC1 [Example 68, 4-{[(3R)-4-Cyclohexyl-1,3-dimethyl-2-oxo-1,2,3,4-tetrahydropyrido[2,3-b]pyrazin-6-yl]amino}-N-{trans-4-[4-(cyclopropylmethyl)piperazin-1-yl]cyclohexyl}benzamide] | 263 | 310 | 548
17 | C[C@@H]1C(=O)N(C)c2ccc(Nc3ccc(C(=O)N4CC5(COC5)C4)cc3)nc2N1C1CCCCC1 [Example 69, (3R)-4-Cyclohexyl-1,3-dimethyl-6-{[4-(2-oxa-6-azaspiro[3.3]hept-6-ylcarbonyl)phenyl]amino}-3,4-dihydropyrido[2,3-b]pyrazin-2(1H)-one] | 164 | 89 | 358
18 | COc1cc(C(=O)N[C@H]2CC[C@H](N3CCN(CC4CC4)CC3)CC2)ccc1Nc1ccc2c(n1)N(C1CCCCC1)[C@H](C)C(=O)N2C [Example 70, 4-{[(3R)-4-Cyclohexyl-1,3-dimethyl-2-oxo-1,2,3,4-tetrahydropyrido[2,3-b]pyrazin-6-yl]amino}-N-{trans-4-[4-(cyclopropylmethyl)piperazin-1-yl]cyclohexyl}-3-methoxybenzamide] | 239 | 120 | 233
19 | COc1cc(C(=O)NC2CN(C)C2)ccc1Nc1ccc2c(n1)N(C1CCCCC1)[C@H](C)C(=O)N2C [Example 72, 4-{[(3R)-4-Cyclohexyl-1,3-dimethyl-2-oxo-1,2,3,4-tetrahydropyrido[2,3-b]pyrazin-6-yl]amino}-3-methoxy-N-(1-methylazetidin-3-yl)benzamide] | 131 | 118 | 254

Source: patent US20160193206A1, “BET-PROTEIN-INHIBITING DIHYDROPYRIDOPYRAZINONES” (BAYER PHARMA AKTIENGESELLSCHAFT, priority 2012, published 2016)
